{"source": "ChEMBL document CHEMBL5226355", "about": "“Design and Synthesis of Indenoisoquinolines Targeting Topoisomerase I and Other Biological Macromolecules for Cancer Chemotherapy” (J Med Chem, 2021)", "key": {"Leishmania infantum [1]": {"test_system": "Leishmania infantum", "experiment": "Antileishmanial activity against Leishmania infantum promastigote infected in BALB/c mouse assessed as reduction in parasite burden in spleen at 2.5 mg/kg, iv administered once every other day for 15 days", "assay_type": "functional", "set-up": "scale not given: the % may be the effect or the level left", "details": "time 15 day"}, "Leishmania infantum [2]": {"test_system": "Leishmania infantum", "experiment": "Antileishmanial activity against Leishmania infantum promastigote infected in BALB/c mouse assessed as reduction in parasite burden in liver at 2.5 mg/kg, iv administered once every other day for 15 days", "assay_type": "functional", "set-up": "scale not given: the % may be the effect or the level left", "details": "time 15 day"}, "KB [3]": {"test_system": "KB", "experiment": "Cytotoxicity against FR-knockdown human KB cells", "assay_type": "functional, cell-based"}, "KB [4]": {"test_system": "KB", "experiment": "Cytotoxicity against human KB cells", "assay_type": "functional, cell-based"}, "Leishmania infantum [5]": {"test_system": "Leishmania infantum", "experiment": "Antileishmanial activity against Leishmania infantum promastigotes BCN150", "assay_type": "functional, organism-based"}}}
{"smiles": "O=C1c2ccccc2-c2c1c1ccc([N+](=O)[O-])cc1c(=O)n2CCCN1CCOCC1", "values": [{"measurement": "Activity", "setting": "Leishmania infantum [1]", "value": ">80", "unit": "%"}, {"measurement": "Activity", "setting": "Leishmania infantum [2]", "value": ">80", "unit": "%"}]}
{"smiles": "CCOC(c1ccc(COCC(=O)NCCOCCOCCOCCOCCOCCNC(=O)CC[C@H](NC(=O)c2ccc(NCc3cnc4nc(N)nc(O)c4n3)cc2)C(=O)O)cc1OC)n1cnc(CCn2c3c(c4ccccc4c2=O)C(=O)c2ccccc2-3)c1", "note": "(some centres not stated)", "values": [{"measurement": "IC50", "setting": "KB [3]", "value": 655, "unit": "µM"}, {"measurement": "IC50", "setting": "KB [4]", "value": 60, "unit": "µM"}]}
{"smiles": "CC[C@@]1(O)C(=O)OCc2c1cc1n(c2=O)Cc2cc3ccccc3nc2-1", "note": "[CAMPTOTHECIN]", "values": [{"measurement": "IC50", "setting": "Leishmania infantum [5]", "value": 1.12, "unit": "µM"}]}
{"smiles": "COc1cc2c3c(n(CCCN4CCOCC4)c(=O)c2cc1OC)-c1cc2c(cc1C3=O)OCO2", "note": "[INDOTECAN]", "values": [{"measurement": "IC50", "setting": "Leishmania infantum [5]", "value": 0.1, "unit": "µM"}]}
{"smiles": "NC[C@@H]1O[C@H](O[C@H]2[C@@H](O)[C@H](O[C@@H]3[C@@H](O)[C@H](N)C[C@H](N)[C@H]3O[C@H]3O[C@H](CO)[C@@H](O)[C@H](O)[C@H]3N)O[C@@H]2CO)[C@H](N)[C@@H](O)[C@@H]1O", "note": "[PAROMOMYCIN]", "values": [{"measurement": "IC50", "setting": "Leishmania infantum [5]", "value": 42.4, "unit": "µM"}]}
